System in one data set: not listed separately
In words: log P by HPLC on reversed-phase column (C 18), EEC Directive 79/831 Annex V.A8. It is filed as physicochemical. The conditions noted are these: HPLC on reversed-phase column (C 18); 40° C.; 0.1% aqueous formic acid and acetonitrile; linear gradient 10% to 90% acetonitrile. As to the method: In table 1, the log P values were determined in accordance with EEC Directive 79/831 Annex V.A8 by HPLC (High Performance Liquid Chromatography) on a reversed-phase column (C 18), using the method described below: Temperature: 40° C.; Mobile phases: 0.1% aqueous formic acid and acetonitrile; linear gradient from 10% acetonitrile to 90% acetonitrile. Calibration was carried out using unbranched alkan-2-ones (comprising 3 to 16 carbon atoms) with known log P values (determination of the log P values by the retention times using linear interpolation between two successive alkanones). lambda-max-values were determined using UV-spectra from 200 nm to 400 nm and the peak values of the chromatographic signals.
`CCc1noc(C)c1C(=O)N1CCCCC1c1ccccc1C` (centres unmarked) [Example 2]: the logP (commonly the decadic logarithm of the partition coefficient of the neutral form, usually between octanol and water) is on record as 3.19.

In turn, `Cc1cc(C(=O)N2CCCCC2c2ccccc2C)c(C)o1` (centres unmarked) [Example 3] yielded a logP of 3.73.

Molecule `Cc1cc(C)cc(C2CCCCN2C(=O)c2cc(C)oc2C)c1` (centres unmarked) [Example 12] came in with a logP of 4.34.

`Cc1cc(C)cc(C2CCCCN2C(=O)c2nn(C)cc2I)c1` (centres unmarked) [Example 13] had a logP of 3.55.

Molecule `Cc1cc(C)cc(C2CCCCN2C(=O)c2cn(C)nc2[N+](=O)[O-])c1` (centres unmarked) [Example 14] gave a logP of 3.09.

As for `Cc1cc(C)cc(C2CCCCN2C(=O)c2nnsc2C)c1` (centres unmarked) [Example 15], the logP was 3.60.

On to `Cc1cc(C)cc(C2CCCCN2C(=O)c2snnc2C(C)C)c1` (centres unmarked) [Example 16], for which the logP was determined as 4.59.

`Cc1cc(C)cc(C2CCCCN2C(=O)c2snnc2C)c1` (centres unmarked) [Example 17]: the logP is reported as 3.71.

As to `Cc1cc(C)cc(C2CCCCN2C(=O)c2nn(C)cc2Br)c1` (centres unmarked) [Example 18], the logP amounted to 3.55.

Take `Cc1cc(C)cc(C2CCCCN2C(=O)c2nn(C)cc2Cl)c1` (centres unmarked) [Example 19]: the logP is reported as 3.44.

`CCn1nc(C)c(C(=O)N2CCCCC2c2cc(C)cc(C)c2)c1F` (centres unmarked) [Example 20] had a logP of 3.67.

Consider `Cc1cc(C)cc(C2CCCCN2C(=O)c2scnc2Cl)c1` (centres unmarked) [Example 21], for which the logP was found to be 3.73.

`Cc1cc(C)cc(C2CCCCN2C(=O)c2c(C(F)(F)F)cn(C)c2Cl)c1` (centres unmarked) [Example 22]: the logP stood at 4.59.

On to `Cc1cc(C)cc(C2CCCCN2C(=O)c2sc(Cl)nc2Cl)c1` (centres unmarked) [Example 23], for which the logP was 4.86.

On to `Cc1cc(C)cc(C2CCCCN2C(=O)c2cn(C)nc2C(Cl)Cl)c1` (centres unmarked) [Example 24], for which the logP is recorded as 3.85.

As for `Cc1cc(C)cc(C2CCCCN2C(=O)c2sc(Cl)nc2C)c1` (centres unmarked) [Example 25], the logP is on record as 4.49.

Consider `Cc1cc(C)cc(C2CCCCN2C(=O)c2sc(Br)nc2C)c1` (centres unmarked) [Example 26], for which the logP worked out at 4.51.

Turning to `Cc1cc(C)cc(C2CCCCN2C(=O)c2sc(C)nc2C)c1` (centres unmarked) [Example 27], the logP is 3.44.

Take `Cc1cc(C)cc(C2CCCCN2C(=O)c2sc(C)nc2Cl)c1` (centres unmarked) [Example 28]: the logP amounted to 4.06.

In turn, `Cc1cc(C)cc(C2CCCCN2C(=O)c2scnc2C)c1` (centres unmarked) [Example 29] registered a logP of 3.25.

As to `CCn1ncc(Cl)c1C(=O)N1CCCCC1c1cc(C)cc(C)c1` (centres unmarked) [Example 32], the log partition coefficient (logP) was found to be 4.34.

With `Cc1cc(C)cc(C2CCCCN2C(=O)c2c(C)oc(C)c2Br)c1` (centres unmarked) [Example 33], the logP turned out to be 4.93.

Molecule `Cc1cc(C)cc(C2CCCCN2C(=O)c2ccsc2I)c1` (centres unmarked) [Example 35] yielded a logP of 4.21.

`CCc1noc(C)c1C(=O)N1CCCCC1c1ccccc1Cl` (centres unmarked) [Example 38] came in with a logP of 3.29.

`Cc1cc(C(=O)N2CCCCC2c2ccccc2Cl)c(C)o1` (centres unmarked) [Example 39] yielded a logP of 3.89.

`CCc1noc(C)c1C(=O)N1CCCCC1c1cccc(Cl)c1` (centres unmarked) [Example 45] showed a logP of 3.48.

`Cc1cc(C(=O)N2CCCCC2c2cccc(Cl)c2)c(C)o1` (centres unmarked) [Example 46]: the logP amounted to 4.04.

In turn, `Cn1nc(C(F)F)c(C(=S)N2CCCCC2c2cccc(Cl)c2)c1Cl` (centres unmarked) [Example 50] displayed a logP of 4.31.

The molecule `CCc1noc(C)c1C(=O)N1CCCCC1c1ccc(Cl)cc1` (centres unmarked) [Example 52] yielded a logP of 3.51.

Molecule `CCc1noc(C)c1C(=O)N1CCCCC1c1ccc2c(c1)OCCO2` (centres unmarked) [Example 61] showed a lipophilicity (logP) of 2.82.

As for `Cc1cc(C(=O)N2CCCCC2c2ccc3c(c2)OCCO3)c(C)o1` (centres unmarked) [Example 62], the logP worked out at 3.25.

In turn, `CCc1nn(C)c(F)c1C(=O)N1CCCCC1c1ccc2c(c1)OCCO2` (centres unmarked) [Example 63] gave a logP of 2.66.

`Cc1nn(C)c(F)c1C(=O)N1CCCCC1c1ccc2c(c1)OCCO2` (centres unmarked) [Example 64] returned a logP of 2.39.

`Cn1nc(C(F)F)c(C(=O)N2CCCCC2c2ccc3c(c2)OCCO3)c1Cl` (centres unmarked) [Example 66]: the logP was found to be 2.99.

`CCc1noc(C)c1C(=O)N1CCCCC1c1cc(OC)cc(OC)c1` (centres unmarked) [Example 69] registered a logP of 3.02.

In the case of `COc1cc(OC)cc(C2CCCCN2C(=O)c2cc(C)oc2C)c1` (centres unmarked) [Example 70], the logP was 3.48.

As for `CCc1noc(C)c1C(=O)N1CCCCC1c1cccc(Cl)c1Cl` (centres unmarked) [Example 74], the logP amounted to 3.73.

On to `Cc1nn(C)c(Cl)c1C(=O)N1CCCCC1c1ccc(Cl)cc1Cl` (centres unmarked) [Example 75], for which the logP is 3.60.

In the case of `CCc1noc(C)c1C(=O)N1CCCCC1c1ccc(Cl)cc1Cl` (centres unmarked) [Example 77], the lipophilicity (logP) is 3.89.

Molecule `Cc1cc(C(=O)N2CCCCC2c2ccc(Cl)cc2Cl)c(C)o1` (centres unmarked) [Example 79] came in with a logP of 4.54.

`Cc1cc(C(=O)N2CCCCC2c2cc(Cl)ccc2Cl)c(C)o1` (centres unmarked) [Example 84]: the logP is 4.36.

`CCc1noc(C)c1C(=O)N1CCCCC1c1cc(Cl)ccc1Cl` (centres unmarked) [Example 85] had a logP of 3.78.

Turning to `CCc1noc(C)c1C(=O)N1CCCCC1c1ccccc1Br` (centres unmarked) [Example 89], the logP turned out to be 3.35.

Consider `Cc1cc(C(=O)N2CCCCC2c2ccc(Br)cc2)c(C)o1` (centres unmarked) [Example 100], for which the logP was found to be 4.16.

In the case of `CCc1noc(C)c1C(=O)N1CCCCC1c1ccc(Br)cc1` (centres unmarked) [Example 101], the log partition coefficient (logP) is 3.64.

The molecule `CCc1nn(C)c(F)c1C(=O)N1CCCCC1c1ccc(Br)cc1` (centres unmarked) [Example 102] had a logP of 3.51.

Regarding `COc1cc(C2CCCCN2C(=O)c2c(C)nn(C)c2F)cc(OC)c1OC` (centres unmarked) [Example 106], the logP is 2.21.

In the case of `CCc1noc(C)c1C(=O)N1CCCCC1c1cc(OC)c(OC)c(OC)c1` (centres unmarked) [Example 107], the logP was 2.64.

Molecule `COc1cc(C2CCCCN2C(=O)c2cc(C)oc2C)cc(OC)c1OC` (centres unmarked) [Example 108] came in with a logP of 3.04.

As for `CCc1nn(C)c(F)c1C(=O)N1CCCCC1c1cc(OC)c(OC)c(OC)c1` (centres unmarked) [Example 109], the logP turned out to be 2.49.

Consider `Cc1cc(C(=O)N2CCCCC2c2cccc(Oc3ccccc3)c2)c(C)o1` (centres unmarked) [Example 111], for which the logP is given as 4.65.

With `CCc1noc(C)c1C(=O)N1CCCCC1c1ccc2ccccc2c1` (centres unmarked) [Example 119], the logP was 3.76.

In turn, `Cc1cc(C(=O)N2CCCCC2c2ccc(Br)s2)c(C)o1` (centres unmarked) [Example 127] gave a logP of 4.29.

On to `CCn1nc(C)c(C(=O)N2CCCCC2c2ccc(Br)s2)c1F` (centres unmarked) [Example 128], for which the logP was 3.55.

Turning to `CCc1noc(C)c1C(=O)N1CCCCC1Cc1ccccc1` (centres unmarked) [Example 130], the logP stood at 3.11.

For `Cc1nc(C(F)F)c(C(=O)N2CCCCC2Cc2ccccc2)s1` (centres unmarked) [Example 133], the logP was determined as 3.17.

The molecule `Cc1cc(C(=O)N2CCCCC2Cc2cccc(F)c2)c(C)o1` (centres unmarked) [Example 152] registered a logP of 3.59.

Take `COc1ccccc1CC1CCCCN1C(=O)c1cc(C)oc1C` (centres unmarked) [Example 158]: the logP is on record as 3.63.

`Cc1nc(C(F)F)c(C(=O)N2CCCCC2Cc2cccc(C(F)(F)F)c2)s1` (centres unmarked) [Example 167] had a logP of 3.70.

As for `Cc1cc(C(=O)N2CCCCC2Cc2cccc(C(F)(F)F)c2)c(C)o1` (centres unmarked) [Example 168], the logP worked out at 4.06.

`Cc1nc(C(F)F)c(C(=O)N2CCCCC2Cc2cccc3ccccc23)s1` (centres unmarked) [Example 170] gave a logP of 3.76.

In the case of `Cn1nc(C(F)F)c(C(=O)N2CCCCC2Cc2cccc3ccccc23)c1F` (centres unmarked) [Example 171], the lipophilicity (logP) worked out at 3.65.

As to `CCc1noc(C)c1C(=O)N1CCCCC1CCc1ccccc1` (centres unmarked) [Example 174], the logP was found to be 3.44.

The molecule `Cc1cc(C(=O)N2CCCCC2CCc2ccccc2)c(C)o1` (centres unmarked) [Example 175] came in with a logP of 3.92.

Molecule `Cc1nc(C(F)F)c(C(=O)N2CCCCC2CCc2ccccc2)s1` (centres unmarked) [Example 178] gave a logP of 3.52.

Take `Cc1nc(C(F)F)c(C(=O)N2CCCCC2CCc2cccs2)s1` (centres unmarked) [Example 192]: the logP is 3.35.

Molecule `Cc1cc(C(=O)N2CCCCC2CCc2cccs2)c(C)o1` (centres unmarked) [Example 193] registered a logP of 3.79.

Still in this data set, the particulars now being: reversed-phase HPLC column (C 18); HPLC, 40° C., 0.1% aqueous formic acid and acetonitrile.
As to `Cc1ccc(C2CCCC(C)N2C(=O)c2c(C(F)F)nn(C)c2F)cc1` (centres unmarked) [Example 197], the chromatographic logP (usually a lipophilicity value derived from retention on a column) worked out at 3.55.

In turn, `Cc1ccc(C2CCCC(C)N2C(=O)c2c(C(F)F)nn(C)c2Cl)cc1` (centres unmarked) [Example 198] returned a chromatographic logP of 3.73.

Consider `Cc1ccc(C2CCCC(C)N2C(=O)c2cn(C)nc2C(F)F)cc1` (centres unmarked) [Example 199], for which the chromatographic logP turned out to be 3.17.

Another data set has as its system Pyrenophora teres. The data set is described as follows: In vivo preventive test on Pyrenophora teres (barley). The conditions noted are these: 500 ppm of active ingredient, evaluated 7-9 days after inoculation. As to the method: Solvent: 49 parts by weight of N,N-dimethylformamide Emulsifier: 1 part by weight of alkylaryl polyglycol ether To produce a suitable preparation of active compound, 1 part by weight of active compound is mixed with the stated amounts of solvent and emulsifier, and the concentrate is diluted with water to the desired concentration. To test for preventive activity, young plants are sprayed with the preparation of active compound at the stated rate of application. One day after this treatment, the plants are inoculated with an aqueous spore suspension of Pyrenophora teres. The plants remain for 48 hours in an incubation cabinet at 22° C. and a relative atmospheric humidity of 100%. Then the plants are placed in a greenhouse at a temperature of approximately 20° C. and a relative atmospheric humidity of approximately 80%. The test is evaluated 7-9 days after the inoculation. 0% means an efficacy which corresponds to that of the untreated control while an efficacy of 100% means that no disease is observed.
On to `Cc1cc(C(=O)N2CCCCC2c2ccccc2C)c(C)o1` (centres unmarked) [Example 3], for which the Efficacy was determined as 80%.

Take `Cc1cc(C)cc(C2CCCCN2C(=O)c2cc(C)oc2C)c1` (centres unmarked) [Example 12]: the Efficacy turned out to be 90%.

On to `Cc1cc(C(=O)N2CCCCC2c2cccc(Cl)c2)c(C)o1` (centres unmarked) [Example 46], for which the Efficacy worked out at 90%.

Consider `Cn1nc(C(F)F)c(C(=S)N2CCCCC2c2cccc(Cl)c2)c1Cl` (centres unmarked) [Example 50], for which the Efficacy was determined as 100%.

`Cc1nn(C)c(F)c1C(=O)N1CCCCC1c1ccc2c(c1)OCCO2` (centres unmarked) [Example 64] showed an Efficacy of 95%.

As for `COc1cc(OC)cc(C2CCCCN2C(=O)c2cc(C)oc2C)c1` (centres unmarked) [Example 70], the Efficacy came out at 80%.

`Cc1cc(C(=O)N2CCCCC2c2ccc(Cl)cc2Cl)c(C)o1` (centres unmarked) [Example 79] returned an Efficacy of 80%.

Molecule `Cc1cc(C(=O)N2CCCCC2c2cc(Cl)ccc2Cl)c(C)o1` (centres unmarked) [Example 84] yielded an Efficacy of 90%.

Regarding `Cc1cc(C(=O)N2CCCCC2c2ccc(Br)cc2)c(C)o1` (centres unmarked) [Example 100], the Efficacy stood at 70%.

`CCc1nn(C)c(F)c1C(=O)N1CCCCC1c1ccc(Br)cc1` (centres unmarked) [Example 102] showed an Efficacy of 100%.

The record behind these values is patent US9545105B2, “1-(heterocyclic carbonyl) piperidines” (BAYER INTELLECTUAL PROPERTY GMBH, priority 2010, dated 2017).
